Data from patent US6001808A, “Method of treating herpes virus infections with spermostatic gramicidin” (Metatron, Inc., priority 1997, dated 1999).
In brackets after ≈: the same amount, converted by molar mass. Like-named read-outs stand apart in the source and are kept apart here.

How the values were obtained:
VR-734 strain of HSV-2 = assay: Protection of WI-38 fibroblasts against cytolytic action of HSV, MTS assay day 5; type: cell-based, herpes simplex virus type 2 (HSV-2); settings: day 5 postinfection, single dose
Description: Inoculated WI-38 cells were grown in the presence of ten-fold dilutions of gramicidin or ACV for five days until all untreated control cells were dead as a result of lytic HSV infection. The culture wells were then exposed for 4 hours to MTS tetrasolium salt and phenazine methosulfate preparation (Cell Titer^96, Promega, Madison, Wis.) and the optical density of formazan dye was measured in a plate reader at 450 nm with reference filter at 620 nm. The obtained values were then compared to both the absorbance values of dead cells and optical density of uninfected viable cells grown in the same plate. The percent of surviving WI-38 cells in drug-protected cultures was determined from dose-response curves as a function of log concentrations of test drugs.

HSV-2 = assay: HSV antigen ELISA, viral yield in WI-38 fibroblasts at 24 hours; type: cell-based, herpes simplex virus type 2 (HSV-2)
Description: (§1) The effect of gramicidin on the replication of herpes simplex viruses (HSV) type 1 and 2 has been examined and compared to the effect of acyclovir--the nucleoside analog used in the prior art for the therapy of herpes virus infections. Human WI-38 fibroblasts were inoculated with either type of HSV in the presence of serial dilutions of gramicidin (10-0.001 mcg/ml) and reduction in viral yield was measured at 24 hours by ELISA. […] The average 50% inhibitory dose (IC50) of gramicidin against 3 HSV-1 and 4 HSV-2 solates was equal to 0.3 mcg/ml and was similar to the efficacy of the anti-HSV agent acyclovir (ACV). The IC50 of a single dose of gramicidin required to protect WI-38 from cytolytic effect of HSV was 10 mcg/ml at day 5 postinfection. Importantly, gramicidin suppressed the replication of ACV-resistant thymidine kinase and polymerase HSV mutants at doses effective against ACV-sensitive strains.
(§2) Human embryonic lung fibroblasts WI-38 (CCL-75, ATCC, Rockville, Md.) were grown in RPMI medium 1640 with 10% FBS, L-glutamine, and penicillin/streptomycin (GIBCO, Grand Island, N.Y.) at 37° C. with 5% CO2 air atmosphere. Herpes viruses that were tested for susceptibility to gramicidin are own in Table 1.
(§3) One day prior to the assay WI-38 monolayers were trypsinized with 0.25% trypsin/EDTA (Sigma) and plated in 96-well microculture plates at seeding concentration 10^5 cells per well. The next day triplicate wells of WI-38 monolayers were exposed to serial 10-fold dilutions (range 10 mcg/ml-1 ng/ml) of gramicidin or ACV. Positive control wells and drug-exposed wells containing 180 mcl of medium received 20 mcl ahquots of HSV-1 or HSV-2 preparation at 5,000 TCID50 per well and were incubated further for 24 hours. Thereupon, the supernatants from infected WI-38 fibroblasts were collected and levels of HSV antigen were examined by ELISA (Premier™ HSV, Meridian Diagnostics Inc., Cincinnati, Ohio) according to the manufacturer's instructions. The primary antibody supplied with this ELISA kit recognizes HSV antigens of both virus types. The amount of HSV antigen, corresponding to levels in the inoculum, was subtracted as a blank value from experimental values reached upon virus propagation in host WI-38 cells. IC50 doses were estimated from dose-response curves plotted as a function of log concentrations of drugs.

HSV-1 = assay: as above; type: cell-based, herpes simplex virus type 1 (HSV-1)
Description: as §1, §2, §3

WI-38 cells [1] = assay: Viability of WI-38 cells by MTS assay
Description: (§4) The effect of test compounds on cell viability was measured by two colorimetric assays as follows. WI-38 cells were grown in the presence or absence of ten-fold dilutions of gramicidin or ACV for two days. The cells were then exposed to MTS/phenazine methosulfate as described above. The conditions for the second, lactate dehydrogenase (LDH) assay, were similar to the MTS test except that a different cell viability parameter was measured. This assay quantitatively measures the stable cytosolic enzyme, LDH, that is released upon cell lysis in much the same way as ^51 Cr is released in radioactive assays. The results were evaluated using an enzymatic assay which measures the conversion of INT tetrazolium salt into red formazan product (CytoTox^96, Promega, Madison, Wis.). A standard 96-well plate reader was set to record wavelength absorbance at 490 nm. The residual LDH activity present in incubation medium was subtracted as a blank value. The amount of LDH released from drug-exposed cells was compared to untreated and detergent-lysed controls according to the formula provided by the manufacturer.

sperm motility = assay: 2-minute sperm immobilization assay (sperm motility by CASA); type: cell-based, human; settings: for times higher dose required to achieve the effect of gramicidin: sperm motility, compounds alone
Description: The tests were conducted on unprocessed semen samples. […] Ejaculate samples from 3 normospermic volunteers were collected after 2-4 days of abstinence and allowed to liquefy for 20 minutes at 37° C. The sperm count was within the range of 60-240×10^6 cells/ml and the percentage of motile cells was over 50%. Serial dilutions of gramicidin, nonoxynol-9, EDTA or combinations thereof were mixed with fresh semen and sperm count, motility and morphology were assessed using computer-assisted semen analysis (CASA). Each 50 mcl sample of semen was mixed in a glass tube with predetermined concentration of test compounds, vortexed for 10 seconds, and left at room temperature for 2 minutes. Thereupon, a small 10 mcl portion of the sample was placed on a glass slide and motility of the sperm was evaluated automatically.

[2] = tested on: sperm penetration into lamb cervical mucus; assay: Cervical mucus penetration assay; type: cell-based, human; settings: for motility of spermatozoa found in drug-pretreated mucus: at the time of observation, N9 even after 1 hour of incubation
Description: Glass capillary tubes (1 mm×100 mm) were filled with freshly collected lamb cervical mucus and placed vertically into solutions with test compounds as described earlier. After 30 minutes, incubation to allow the diffusion of drugs into mucus, the mucus-containing tubes were dipped vertically into cuvettes with the semen. After 15 minutes, the sperm that moved upwards from the bottom of the capillary tube was evaluated under microscope for traveled distance and the percent of motile sperm.

sperm viability [3] = assay: Lactate dehydrogenase (LDH) release assay on sperm; type: cell-based, human; settings: high doses, serial dilutions 100 mcg-1 ng per ml
Excerpt: The disruption of the sperm membrane by N9-like detergents such as Triton X-100 or by gramicidin S leads to release of intracellular LDH isoenzymes or membrane-associated LDH-X, and an increase in LDH activity can be measured by assaying the supernatant of sperm suspension. The increase in LDH activity can be thus used as an indicator of drug toxicity since cytosolic LDH is released upon cell lysis in the same way as 51Cr is released in radioactive assays. The assay setting is similar to XTT assay and released LDH is quantitated with commercial enzymatic assay (CytoTox96, Promega, Madison, Wis.). An ordinary plate reader was used to record visible wavelength absorbance at 490 nm. The residual LDH activity usually present in seminal plasma or in incubation medium was subtracted as blank values and the % of toxicity was determined as directed by manufacturer's instruction. This assay is very sensitive and results are obtained within 30 minutes.
(§5) These two methods, XTT and LDH, were used simultaneously on the same semen samples to determine the toxic effect of gramicidin. Both quantitative tests, measuring two independent indicators of sperm viability, indicate that gramicidin is a potent nontoxic agent with antifertility potential.

HSV type 1 and 2 = assay: HSV antigen ELISA, summary over HSV-1 and HSV-2 isolates; type: cell-based, herpes simplex viruses (HSV) type 1 and 2
HIV = settings: 10 ng/ml; cited from earlier work
sperm viability [4] = assay: Tetrazolium dye reduction (XTT) assay on sperm; type: cell-based, human; settings: highest 100 mcg/ml concentration
Description: The spermatozoa from fertile donors are capable of nitroblue tetrazolium reduction in a same way as the fibroblasts in Example 1. Briefly, sperm were suspended in a 96-well plate in the presence of serial ten-fold dilutions of test compounds and each 180 mcl well received 20 mcl of XTT solution at final concentration 1 mg/ml of XTT (Sigma) with 1% w/v of PMS (Aldrich, Milwaukee, Wis.). Drug untreated spermatozoa served as positive viability references.
as §5

WI-38 cells [5] = assay: LDH release from drug-exposed WI-38 cells; settings: 2 days of treatment, highest 10 mcg dose
Description: as §4

[6] = 0% EDTA, 2 minutes, unprocessed semen
[7] = 0.1% EDTA, 2 minutes, unprocessed semen

## Nc1nc2c(ncn2COCCO)c(=O)[nH]1 [Acyclovir, [2-hydroxyethoxymethyl]guanine]
VR-734 strain of HSV-2; Human alphaherpesvirus 2, WI-38, 120 h, read-out: IC50 for protection of WI-38 from cytolytic effect of HSV
  IC50: 0.2 µg/mL (≈ 0.888 µM)
HSV-2; Human alphaherpesvirus 2, WI-38, 24 h, read-out: IC50 on HSV replication by antigen ELISA, VR-734 strain of HSV-2, WI-38 cells, day 1 postinfection
  IC50: 0.2 µg/mL (≈ 0.888 µM)
HSV-2; Human alphaherpesvirus 2, WI-38, read-out: IC50 by HSV antigen ELISA, HSV type 2 strain 186, ACV-sensitive
  IC50: 0.1 µg/mL (≈ 0.444 µM)
HSV-2; Human alphaherpesvirus 2, WI-38, read-out: IC50 by HSV antigen ELISA, HSV type 2 strain 8708, TK altered
  IC50: 9.9 µg/mL (≈ 44 µM)
HSV-2; Human alphaherpesvirus 2, WI-38, read-out: IC50 by HSV antigen ELISA, HSV type 2 strain Kost, TK altered
  IC50: 15.8 µg/mL (≈ 70.2 µM)
HSV-2; Human alphaherpesvirus 2, WI-38, read-out: IC50 by HSV antigen ELISA, HSV type 2 strain VR-734, ACV-sensitive
  IC50: 0.2 µg/mL (≈ 0.888 µM)
HSV-1; Human alphaherpesvirus 1, WI-38, read-out: IC50 by HSV antigen ELISA, HSV type 1 strain DM2.1, TK-
  IC50: 77.3 µg/mL (≈ 343 µM)
HSV-1; Human alphaherpesvirus 1, WI-38, read-out: IC50 by HSV antigen ELISA, HSV type 1 strain KOS, ACV-sensitive
  IC50: 0.4 µg/mL (≈ 1.78 µM)
HSV-1; Human alphaherpesvirus 1, WI-38, read-out: IC50 by HSV antigen ELISA, HSV type 1 strain PAAr, Polymerase-
  IC50: 52.4 µg/mL (≈ 233 µM)
WI-38 cells [1]
  toxicity to host WI-38 cells: not toxic

## O=C(O)CN(CCN(CC(=O)O)CC(=O)O)CC(=O)O [EDTA, ethylenediaminetetraacetic acid]
Sperm motility; [6]
  IC100 on sperm motility: 5,000 mcg/ml
Sperm motility
  times higher dose required to achieve the effect of gramicidin: ≥ 1250 times
[2]; 0% EDTA
  IC100 in cervical mucus penetration assay: 1,200 mcg/ml

## CCCCCCCCCc1ccc(OCCOCCOCCOCCOCCOCCOCCOCCOCCO)cc1 [Nonoxynol-9, nonoxynol-9]
Sperm motility
  enhancement in activity upon combination with EDTA: less than a two-fold enhancement
  times higher dose required to achieve the effect of gramicidin: At least 50 times
Sperm motility; [6]
  IC100 on sperm motility: 200 µg/mL
Sperm motility; [7]
  IC100 on sperm motility: 125 µg/mL
Sperm motility; at 4 mcg/ml, 2 minutes
  effect on sperm motility: no effect
[2]; 0% EDTA, no IC100 at the highest tested dose
  IC100 in cervical mucus penetration assay: > 1000 µg/mL
[2]; 0.1% EDTA
  IC100 in cervical mucus penetration assay: 100 µg/mL
[2]; Homo sapiens, Sperm, 0% EDTA, footnote: value represents IC50
  IC50: 900 µg/mL (≈ 1460 µM)
[2]
  motility of spermatozoa found in drug-pretreated mucus: retained motility

## gramicidin D
VR-734 strain of HSV-2
  IC50 for protection of WI-38 from cytolytic effect of HSV: 10 µg/mL
Sperm motility; [6]
  IC100 on sperm motility: 4 µg/mL
Sperm motility; [7]
  IC100 on sperm motility: 0.01 µg/mL
Sperm motility; after washing sperm and resuspending in Earle's balanced salt solution
  reversibility of effect on sperm motility: irreversible effect
Sperm motility; sperm immobilization, without EDTA
  times more potent than N9: 50 times
Sperm motility; with 0.1% of EDTA
  IC100 on sperm motility: 0.01 µg/mL
[2]; 0% EDTA
  IC100 in cervical mucus penetration assay: 3 µg/mL
[2]; 0.1% EDTA
  IC100 in cervical mucus penetration assay: 0.001 µg/mL
[2]
  motility of spermatozoa found in drug-pretreated mucus: immotile
[2]; with 0.1% of EDTA
  concentration that completely prevented penetration of sperm into mucus: 1 ng/mi
Sperm viability [3]
  effect on LDH release from sperm: negligible
HSV-2; HSV type 2 strain 186, ACV-sensitive
  IC50 by HSV antigen ELISA: 0.1 µg/mL
HSV-2; HSV type 2 strain 8708, TK altered
  IC50 by HSV antigen ELISA: 0.3 µg/mL
HSV-2; HSV type 2 strain Kost, TK altered
  IC50 by HSV antigen ELISA: 0.2 µg/mL
HSV-2; HSV type 2 strain VR-734, ACV-sensitive
  IC50 by HSV antigen ELISA: 0.3 µg/mL
HSV-2; VR-734 strain of HSV-2, WI-38 cells, day 1 postinfection
  IC50 on HSV replication by antigen ELISA: 0.3 µg/mL
HSV-1; HSV type 1 strain DM2.1, TK-
  IC50 by HSV antigen ELISA: 0.3 µg/mL
HSV-1; HSV type 1 strain KOS, ACV-sensitive
  IC50 by HSV antigen ELISA: 0.2 µg/mL
HSV-1; HSV type 1 strain PAAr, Polymerase-
  IC50 by HSV antigen ELISA: 0.4 µg/mL
HSV type 1 and 2; average against 3 HSV-1 and 4 HSV-2 isolates
  average 50% inhibitory dose (IC50): 0.3 µg/mL
HSV type 1 and 2; both HSV type 1 and 2, 24 hours, range over isolates
  IC50, reduction in viral yield by ELISA: 0.1 to 0.4 µg/mL
HIV
  activity against lab strains and clinical isolates of HIV: active
Sperm viability [4]
  effect on mitochondrial hydrogenases of sperm (XTT): no effect
WI-38 cells [1]; MTS, day 2, highest tested 10 mcg/ml dose
  effect on viability (metabolic activity) of WI-38 cells: no significant effect
WI-38 cells [1]; at concentrations that exceeded IC50 by at least two orders of magnitude
  toxicity to host WI-38 cells: not toxic
WI-38 cells [5]
  excess LDH released, relative to baseline of untreated controls: ≤ 15%
